The values below come from PMC5904360, “Soluble N-Ethylmaleimide-Sensitive Factor Attachment Protein Receptor-Derived Peptides for Regulation of Mast Cell Degranulation” (Frontiers in Immunology, 2018).

The subject of series [1] is NC/Nga mice. Description: DNCB-induced atopic dermatitis-like skin lesions. Type of series: in vivo, mouse. As to conditions: for ear thickness: 0.3 and 3% peptide/day or 0.1% dexamethasone/day for 4 weeks, n = 10 per group (Figure 5D). The text has this:
Seven-week-old NC/Nga mice were purchased from the Shizuoka Laboratory Animal Center (Shizuoka, Japan) and allowed to adapt to the environment for a week prior to use. The procedures for the induction of atopic dermatitis-like symptoms in mice using 1-chloro-2,4-dinitro-benzene (DNCB) have been well described previously ([27]). Briefly, the dorsal hair of the mice was shaved 2 days before DNCB administration. For the induction of atopic dermatitis, 1% DNCB was applied to the dorsal skin of the mice twice weekly for 7 days and then 0.2% DNCB was applied thrice weekly for 21 days. The mice were divided into the following […] treatment groups (n = 10 per group): 0.3 and 3% Vp2N/day, 0.3 and 3% Vp8N/day, 0.1% dexamethasone/day, and vehicle only, dorsally administered from 9 to 13 weeks of age. As a negative control for atopic dermatitis, NC/Nga mice that were not treated with DNCB were maintained under pathogen-free conditions. Laboratory animal breeding management was based on the “Guide for the Care and Use of Laboratory Animals,” and all experiments were approved by the Institutional Animal Care and Use Committees of Gyeonggi Institute of Science & Technology.

The conditions of series [2]: topical glucocorticosteroid; cited from earlier work.
In series [3] the test system is RBL-2H3 mast cells. Nature of the series: Degranulation assay, β-hexosaminidase release. Type of series: cell-based, rat. As to conditions: for reduction of β-hexosaminidase release: 10 µM PTD-fused peptide without SLO (LY294002 as positive control), DNP-BSA stimulation, no A23187 pretreatment, three independent experiments (Figure 2A gray bars, 2C); for inhibition of β-hexosaminidase release after A23187 pretreatment: cells pretreated with A23187, sensitized with DNP-IgE, then PTD-conjugated peptide (Figure 4B).

For series [4], the target named is T1, SN23-Syn4-Vp2 complex (Rattus norvegicus, UniProt O70377+P63045+Q08850).
T1 construct: Lysates of RBL-2H3 cells; endogenous in cells; host or cells: RBL-2H3 (ATCC CRL-2256)
Nature of the series: Co-immunoprecipitation of SNARE complexes in activated RBL-2H3 cells, anti-SNAP-23 blot. Type of series: cell-based. The following applies: peptides added to the medium after A23187 pretreatment; IP of Vp2, blot anti-SNAP-23 (Figure 4C). The method, then: (§1) Lysates of RBL-2H3 cells (0.5–1 × 10^6 cells), which were obtained by the addition of 1 mL lysis buffer (50 mM Tris–HCl, 150 mM NaCl, 1% Triton X-100™, 1 mM EDTA, pH 7.5) supplemented with a protease inhibitor cocktail (Calbiochem®, Merck Millipore, Billerica, MA, USA), were centrifuged at 13,000 g at 4°C to remove cell debris and precleared with 100 µL protein G Sepharose® (GE Healthcare) for 2 h at 4°C. The precleared lysates were incubated with antibodies against SNARE proteins (Syn4, SNAP-23, VAMP2, and VAMP8) for 2 h at 4°C for binding, and then the antibody–antigen complexes were precipitated by incubation with a protein G slurry overnight with constant shaking. After an extensive washing step with lysis buffer, an immunoblotting analysis was performed for the precipitates. The immunoprecipitated proteins and cell lysates were electrophoresed on 12% sodium dodecyl sulfate-polyacrylamide gel electrophoresis gels and then transferred to nitrocellulose blotting membranes (GE Healthcare). After blocking the membranes in TBST (10 mM Tris–HCl, 150 mM NaCl, and 0.05% Tween® 20, pH 8) containing 0.5% BSA and 5% skim milk for 1 h at room temperature, primary anti-SNAP-23 antibody (1:1,000 dilution) in TBST supplemented with 1% BSA and 0.01% sodium azide was added and incubated at 4°C overnight. The membranes were washed with TBST, treated with a horseradish peroxidase-conjugated secondary anti-mouse IgG antibody (A4416, Sigma-Aldrich), and visualized using enhanced chemiluminescence solution for the development of a luminescent signal.

The target in series [5] is T2, SN23-Syn4-Vp8 complex (Rattus norvegicus, UniProt O70377+Q08850+Q9WUF4).
T2 construct: Lysates of RBL-2H3 cells; endogenous in cells; host or cells: RBL-2H3 (ATCC CRL-2256)
T2 sequence (Q08850 1-298): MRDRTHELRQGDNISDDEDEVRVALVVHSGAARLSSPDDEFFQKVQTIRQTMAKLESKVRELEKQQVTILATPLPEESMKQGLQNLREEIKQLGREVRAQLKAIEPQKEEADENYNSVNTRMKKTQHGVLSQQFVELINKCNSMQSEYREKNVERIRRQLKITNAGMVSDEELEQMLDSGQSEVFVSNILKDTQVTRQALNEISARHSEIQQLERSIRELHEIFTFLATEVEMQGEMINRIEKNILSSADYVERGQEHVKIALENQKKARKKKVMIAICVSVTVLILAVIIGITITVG
T2 sequence (O70377 1-210): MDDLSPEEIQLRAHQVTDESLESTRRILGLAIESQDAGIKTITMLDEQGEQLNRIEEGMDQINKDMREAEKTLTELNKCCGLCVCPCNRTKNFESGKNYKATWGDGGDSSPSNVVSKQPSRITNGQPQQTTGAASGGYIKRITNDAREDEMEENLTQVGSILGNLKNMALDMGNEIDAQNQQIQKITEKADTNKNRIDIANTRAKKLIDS
T2 sequence (Q9WUF4 1-100): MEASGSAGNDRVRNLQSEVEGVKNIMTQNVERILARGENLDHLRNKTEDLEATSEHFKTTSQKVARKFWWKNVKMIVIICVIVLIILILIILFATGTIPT
The description is as above. The series is classed as cell-based. The following applies: peptides added to the medium after A23187 pretreatment; IP of Vp8, blot anti-SNAP-23 (Figure 4C). On the procedure: as §1

Series [6] deals with RBL-2H3 mast cells. Description: Degranulation assay, histamine release (enzyme immunoassay). Type of series: cell-based, rat. As to conditions: for inhibition of histamine release: PTD-conjugated peptide without SLO (LY294002 as positive control), DNP-IgE sensitized, DNP-BSA stimulation, no A23187 pretreatment, three independent experiments (Figure 2C); for inhibition of histamine release after A23187 pretreatment: cells pretreated with A23187, sensitized with DNP-IgE, then PTD-conjugated peptide (Figure 4B).

Series [7] addresses T3, SN23-Syn4-Vp2 SNARE complex (Rattus norvegicus, UniProt O70377+P63045+Q08850).
T3 construct: Syn4 (amino acids 1–298); SNAP-23 (amino acids 1–210); full-length VAMP2 (VpF, amino acids 1–116); GST (N, cleaved yes); made in house; host or cells: Escherichia coli Rosetta(DE3)pLysS
Nature of the series: SNARE-driven membrane fusion (total lipid mixing) assay with proteoliposomes. Type of series: biochemical. The text has this: Total RNA was obtained from RBL-2H3 cells using TRIzol® Reagent (#15596026, Invitrogen, Carlsbad, CA, USA) and served as a template for cDNA synthesis with M-MLV reverse transcriptase (M1705, Promega, Madison, WI, USA) according to the manufacturer’s protocol. The cDNAs amplified for rat Syn4, SNAP-23, VAMP2, VAMP4, VAMP7, and VAMP8 using each primer pair ([4]), were cloned into the pGEX-4T 1 vector. The mast cell SNARE proteins [Syn4 (amino acids 1–298), SNAP-23 (amino acids 1–210), full-length VAMP2 (VpF, amino acids 1–116), VAMP4 (amino acids 1–141), and VAMP8 (amino acids 1–100)] were expressed in Escherichia coli Rosetta(DE3)pLysS (#70956, Novagen, Darmstadt, Germany) and purified as glutathione-S-transferase-tagged fusion proteins as reported previously ([8]).
To prepare the unilamellar liposomes, a 50-mM lipid mixture of palmitoyl-2-oleoylphosphatidylcholine (POPC) (#850457, Avanti Polar Lipids, Alabaster, AL, USA):1,2-dioleoyl-phosphatidylserine (DOPS) (#840035, Avanti Polar Lipids) at 65:35 mol% was dried in a glass tube under a gentle stream of nitrogen gas and then exposed to a vacuum overnight. The resultant lipid film was resuspended in dialysis buffer (25 mM HEPES and 100 mM KCl, pH 7.4) by vortexing, followed by an extrusion step with polycarbonate membrane filters having a pore size of 100 nm (#610005, Avanti Polar Lipids). To prepare proteoliposomes, binary T-SNAREs, which were pre-formed by mixing Syn4 and SNAP-23 at room temperature for 60 min, were incubated with 50 mM unilamellar liposomes for 15 min at the same temperature, resulting in a 50:1 lipid/protein molar ratio ([9]).
For the preparation of V-SNARE proteoliposomes, a 10-mM premixed lipid solution [POPC:DOPS:N-(7-nitro-2-1,3-benzoxadiazol-4-yl (NBD))-phosphatidylserine (#810198, Avanti Polar Lipids):[…] (#810150, Avanti Polar Lipids) = 62:35:1.5:1.5 (molar ratio)] was used for the preparation of fluorescent liposomes in the same manner as above. The prepared liposomes were then mixed with VAMP2 for 15 min at room temperature. The liposome/protein mixture was diluted twice to bring the concentration of n-octyl glucoside (O8001, Sigma-Aldrich) below the critical micelle concentration. After overnight dialysis against 1L dialysis buffer at 4°C to remove the detergent, SM-2 bio-beads (#1523920, Bio-Rad Laboratories, Hercules, CA, USA) were added to the sample to remove any remaining n-octyl glucoside. The solution was then centrifuged at 10,000 × g to remove the protein/lipid aggregates, and the final lipid concentrations of both the T- and V-liposomes were adjusted to 1 mM with a lipid-to-protein ratio of 50:1.
A total lipid mixing assay using the T- and V-liposomes was performed as described previously with minor modifications ([8]). […] The fusion was monitored using the dequenching of NBD fluorescence signal (excitation 465 nm/emission 530 nm). After at least 80 min of fusion, the maximum NBD signal was obtained by adding 0.1% Triton X-100™. All the lipid-mixing experiments were performed at 37°C.

T3 sequence (P63045 whole entry, one chain of several, the tested form may be a part): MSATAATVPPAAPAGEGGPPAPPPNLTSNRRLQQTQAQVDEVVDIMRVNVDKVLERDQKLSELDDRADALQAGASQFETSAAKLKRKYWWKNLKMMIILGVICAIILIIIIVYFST
T1 sequence (P63045 whole entry, one chain of several): as the sequence (P63045 whole entry, one chain of several, the tested form may be a part) above

On to `C[C@@H]1C[C@H]2[C@@H]3CCC4=CC(=O)C=C[C@]4(C)[C@@]3(F)[C@@H](O)C[C@]2(C)[C@@]1(O)C(=O)CO` [Dexamethasone, dexamethasone, reference compound], for which the ear thickness result in series [1] is recorded as “recovered the ear thickness to the normal range”. Besides, the side effect result in series [2] was “skin thinning”.

As for `O=c1cc(N2CCOCC2)oc2c(-c3ccccc3)cccc12` [LY294002, reference compound], in series [3], the “reduction of β-hexosaminidase release” value is “efficiently inhibited” and the “inhibition of β-hexosaminidase release after A23187 pretreatment” value is given as “efficiently inhibited”. Moreover, the “SNARE complex formation in cells (amount of SN23-Syn4-Vp2 complex)” value in series [4] is “did not inhibit”. Also, the “SNARE complex formation in cells (amount of SN23-Syn4-Vp8 complex)” value in series [5] is on record as “did not inhibit”. In series [6], the “inhibition of histamine release” value is “efficiently inhibited” and the “inhibition of histamine release after A23187 pretreatment” value was “efficiently inhibited”.

As to “RRLQQTQAQVDEVVDIM [Vp2N, 17-mer peptide, N-terminal region of VAMP2 SNARE motif]”, in series [1] (0.3 and 3% peptide/day dorsally for 4 weeks, n = 10 per group, versus DNCB/vehicle-treated group (Figure 5C)), the epidermal thickness entry was “significantly reduced”. The “atopic dermatitis features (acanthosis, hypergranulosis, hyperkeratosis) in hematoxylin and eosin-stained sections” value in series [1] (0.3 and 3% peptide/day dorsally, 9 to 13 weeks of age, n = 10 per group, compared with 0.1% dexamethasone/day group (Figure 5B)) is listed as “clearly alleviated to a similar extent”. Further, in series [1], the ear thickness result is “reduced”. In addition, in series [3], the “reduction of β-hexosaminidase release” value is listed as “did not inhibit” and the “inhibition of β-hexosaminidase release after A23187 pretreatment” value is on record as “did not inhibit”. Moreover, in series [3] (PTD-conjugated peptides, read-outs β-hexosaminidase and histamine (Figure 4B)), the “inhibition of mast cell degranulation with versus without A23187 pretreatment” value is given as “inhibited mast cell degranulation more efficiently than without pretreatment”. The “SNARE complex formation in cells (amount of SN23-Syn4-Vp2 complex)” value in series [4] was “reduced”. Moreover, the “inhibition of membrane fusion (lipid mixing)” value in series [7] (inhibitor applied to T-vesicles, T:V 9:1, 37°C, NBD dequenching, Vp2S/Vp8S at 10 µM, three independent experiments (Figure 3B-D)) is “efficiently inhibited”. Also, the “inhibition of membrane fusion, peptide added after preincubation” value in series [7] (peptide added after preincubation of T- and V-liposomes at 4°C overnight (partially zippered SNAREs) (Figure 4A)) is “inhibitory activities significantly diminished”. Further, the “inhibition of membrane fusion, peptide added before preincubation” value in series [7] (peptide added before preincubation of T- and V-liposomes at 4°C overnight (Figure 4A)) is “inhibited the membrane fusion driven only by their cognate SNARE complexes”. In addition, in series [6], the “inhibition of histamine release” value is on record as 43% and the “inhibition of histamine release after A23187 pretreatment” value is “dramatically reduced”.
